# Columns and labels:
# Type in all cases: functional
# B16-F10 = assay: Cytotoxicity against mouse B16-F10 cells assessed as inhibition of cell growth incubated for 24 hrs by resazurin staining based analysis; settings: B16-F10, 24 h
# SK-MEL-28 = assay: Cytotoxicity against human SK-MEL-28 cells assessed as inhibition of cell growth incubated for 24 hrs by resazurin staining based analysis; settings: SK-MEL-28, 24 h
# SK-MEL-5 = assay: Cytotoxicity against human SK-MEL-5 cells assessed as inhibition of cell growth incubated for 24 hrs by resazurin staining based analysis; settings: SK-MEL-5, 24 h
# SK-MEL-25 = assay: Cytotoxicity against human SK-MEL-25 cells assessed as inhibition of cell growth incubated for 24 hrs by resazurin staining based analysis; settings: SK-MEL-25, 24 h
# LOX IMVI = assay: Cytotoxicity against human LOX IMVI cells assessed as inhibition of cell growth incubated for 24 hrs by resazurin staining based analysis
Structure (SMILES),IC50 (B16-F10) [µM],IC50 (SK-MEL-28) [µM],IC50 (SK-MEL-5) [µM],IC50 (SK-MEL-25) [µM],IC50 (LOX IMVI) [µM]
C[C@]12CCc3nc(Nc4ccccn4)sc3C1=CC[C@@H]1[C@@H]2CC[C@]2(C)C(=O)CC[C@@H]12,5.9,8.9,7.1,11.8,2.3
C#C[C@]1(O)CC[C@H]2[C@@H]3CC=C4c5sc(Nc6cccc(Cl)n6)nc5CC[C@]4(C)[C@H]3CC[C@@]21C,3.8,2.4,2.7,5.7,5.5
C#C[C@]1(O)CC[C@H]2[C@@H]3CC=C4c5sc(Nc6cccnc6)nc5CC[C@]4(C)[C@H]3CC[C@@]21C,10.7,2.3,3,2.1,2.6
Cc1ccc(Nc2nc3c(s2)C2=CC[C@@H]4[C@H](CC[C@]5(C)C(=O)CC[C@@H]45)[C@@]2(C)CC3)c(C)c1,6.1,1.9,6.6,4.4,3.6
C#C[C@]1(O)CC[C@H]2[C@@H]3CC=C4c5sc(Nc6ncccn6)nc5CC[C@]4(C)[C@H]3CC[C@@]21C,13.5,2.8,4.9,5.7,7.8
C[C@]12CCc3nc(NCCc4ccccc4)sc3C1=CC[C@@H]1[C@@H]2CC[C@]2(C)C(=O)CC[C@@H]12,6.1,5.4,5.2,> 20,9
C#C[C@]1(O)CC[C@H]2[C@@H]3CC=C4c5sc(Nc6cc(Cl)ccn6)nc5CC[C@]4(C)[C@H]3CC[C@@]21C,3.8,2.8,3.6,4.4,3
C#C[C@]1(O)CC[C@H]2[C@@H]3CC=C4c5sc(-c6ccc(O)cc6)nc5CC[C@]4(C)[C@H]3CC[C@@]21C,4.7,2.5,3.2,3.7,3.3
C#C[C@]1(O)CC[C@H]2[C@@H]3CC=C4c5sc(Nc6ccc(F)cn6)nc5CC[C@]4(C)[C@H]3CC[C@@]21C,3.1,3.5,2.8,3.2,5.4
C#C[C@]1(O)CC[C@H]2[C@@H]3CC=C4c5sc(-c6cccc(F)c6)nc5CC[C@]4(C)[C@H]3CC[C@@]21C,8.5,14,20,> 20,15.3
COc1ccc(OC)c(Nc2nc3c(s2)C2=CC[C@@H]4[C@H](CC[C@]5(C)C(=O)CC[C@@H]45)[C@@]2(C)CC3)c1,6.4,> 20,> 20,> 20,6.2
C[C@]12CCc3nc(Nc4cccc(O)c4)sc3C1=CC[C@@H]1[C@@H]2CC[C@]2(C)C(=O)CC[C@@H]12,6.7,12.6,> 20,4.8,2.2
C#C[C@]1(O)CC[C@H]2[C@@H]3CC=C4c5sc(Nc6ccc(C)c(Cl)c6)nc5CC[C@]4(C)[C@H]3CC[C@@]21C,4.9,5.6,4.3,4.6,3.9
Cc1ccc(Nc2nc3c(s2)C2=CC[C@@H]4[C@H](CC[C@]5(C)C(=O)CC[C@@H]45)[C@@]2(C)CC3)cc1,4.9,4,7.3,4.3,4.2
C[C@]12CCc3nc(Nc4ccccc4F)sc3C1=CC[C@@H]1[C@@H]2CC[C@]2(C)C(=O)CC[C@@H]12,5.4,6.4,> 20,> 20,6.7
C#C[C@]1(O)CC[C@H]2[C@@H]3CC=C4c5sc(Nc6ccncc6)nc5CC[C@]4(C)[C@H]3CC[C@@]21C,6.7,4.2,2.9,7.9,2.5
C[C@]12CCc3nc(Nc4ccccc4)sc3C1=CC[C@@H]1[C@@H]2CC[C@]2(C)C(=O)CC[C@@H]12,5.8,6.1,10.6,6.8,2.7
C#C[C@]1(O)CC[C@H]2[C@@H]3CC=C4c5sc(Nc6cc(OC)ccc6OC)nc5CC[C@]4(C)[C@H]3CC[C@@]21C,7.2,5,3.5,3.4,2.4
C#C[C@]1(O)CC[C@H]2[C@@H]3CC=C4c5sc(-c6cccc(O)c6)nc5CC[C@]4(C)[C@H]3CC[C@@]21C,2.9,6,3.5,6.6,4.1

# Source: ChEMBL document CHEMBL6182831, “Thiazole-fused androstenone and ethisterone derivatives: potent β- and γ-actin cytoskeleton inhibitors to treat melanoma tumors” (RSC Med Chem, 2025)
